{"source": "patent US8906868B2", "about": "“Aminoglycoside derivatives” (Rempex Pharmaceuticals, Inc., priority 2010, dated 2014)", "key": {"ECM6003 rmtB": {"test_system": "ECM6003 rmtB", "assay": "microbe, parasite or virus in culture", "type": "cell-based, Escherichia coli", "experimental": "(§1) To compare microbiological activity of the test compounds, minimum inhibitory concentrations (MIC.s) were determined. Antibiotic MICs were obtained using the broth microdilution method according to Clinical and Laboratory Standards Institute (CLSI) approved guidelines (Methods for dilution antimicrobial susceptibility tests for bacteria that grow aerobically; approved standard—7th ed. CLSI document M7-A7. Clinical and Laboratory Standards Institute, Wayne, Pa., incorporated herein by reference in its entirety). Antibiotics were dissolved as specified by CLSI (Performance standards for antimicrobial susceptibility testing; Seventeenth informational supplement. CLSI document M100-S17. Clinical and Laboratory Standards Institute, Wayne, Pa., incorporated herein by reference in its entirety), and were serially diluted 2-fold in cation adjusted Mueller Hinton Broth (CaMHB) at 2× concentration. Bacterial inoculums were prepared in CaMHB by suspension of a colony from an agar plate that was prepared the previous day to obtain a final concentration of 5×10^5CFU/ml. The plates were incubated for 18 hours at 35° C. […] MIC.s were determined by reading the turbidity of plate wells using a SpectraMax Plus384 plate reader (Molecular Devices, Sunnyvale, Calif., USA) at 600 nm and were confirmed by visual inspection.\n(§2) Activity of the test compounds was determined using QC strains and strains with known aminoglycoside resistance mechanisms (TABLE 3). This specific panel contained strains expressing enzymes that covalently modify N2″, N3 and N3′ positions.\nThe panel also contained a strain expressing ribosomal RNA methylase, RmtB."}, "PAM3073 aac(6′)-I": {"test_system": "PAM3073 aac(6′)-I", "assay": "microbe, parasite or virus in culture", "type": "cell-based, Pseudomonas aeruginosa", "conditions": "Pseudomonas aeruginosa, Table 5; read-out: Compound MIC on Bacterial Strains: Pseudomonas aeruginosa PAM3073 aac(6′)-I", "experimental": "as §1"}, "PAM3072 aac(6′)-II": {"test_system": "PAM3072 aac(6′)-II", "assay": "microbe, parasite or virus in culture", "type": "cell-based, Pseudomonas aeruginosa", "conditions": "Pseudomonas aeruginosa, Table 5; read-out: Compound MIC on Bacterial Strains: Pseudomonas aeruginosa PAM3072 aac(6′)-II", "experimental": "as §1"}, "[1]": {"test_system": "Acinetobacter baumannii (ATCC 19606)", "assay": "MIC, broth microdilution", "conditions": "Acinetobacter baumannii, ATCC19606, read-out: Compound MIC on Bacterial Strains: A. baumannii ATCC 19606"}, "[2]": {"test_system": "Pseudomonas aeruginosa (ATCC 27853)", "assay": "MIC, broth microdilution", "conditions": "Pseudomonas aeruginosa"}, "[3]": {"test_system": "Escherichia coli (ATCC 25922)", "assay": "MIC, broth microdilution", "conditions": "for MIC: Escherichia coli"}, "ECM6011 aph(3′)-I": {"test_system": "ECM6011 aph(3′)-I", "assay": "microbe, parasite or virus in culture", "type": "cell-based, Escherichia coli", "experimental": "as §1, §2"}, "ECM6010 ant(2″)-I": {"test_system": "ECM6010 ant(2″)-I", "assay": "microbe, parasite or virus in culture", "type": "cell-based, Escherichia coli", "experimental": "as §1, §2"}, "ECM6009 aac(3)-II": {"test_system": "ECM6009 aac(3)-II", "assay": "microbe, parasite or virus in culture", "type": "cell-based, Escherichia coli", "experimental": "as §1, §2"}, "ECM6006 aph(3′)-III": {"test_system": "ECM6006 aph(3′)-III", "assay": "microbe, parasite or virus in culture", "type": "cell-based, Escherichia coli", "experimental": "as §1, §2"}, "[4]": {"test_system": "Klebsiella pneumonia (ATCC 43816)", "assay": "MIC, broth microdilution", "conditions": "Klebsiella pneumoniae, ATCC43816, read-out: Compound MIC on Bacterial Strains: K. pneumonia ATCC 43816"}, "EC1002 aph(3′)-IV": {"test_system": "EC1002 aph(3′)-IV", "assay": "organism not typed", "type": "cell-based", "experimental": "as §1, §2"}, "EC1001 acc(6′)-Ib": {"test_system": "EC1001 acc(6′)-Ib", "assay": "microbe, parasite or virus in culture", "type": "cell-based, Escherichia coli", "conditions": "Table 4", "experimental": "as §1"}, "[5]": {"test_system": "ECM6007 aac(6′) + aph(2″)", "assay": "microbe, parasite or virus in culture", "type": "cell-based, Escherichia coli", "conditions": "Table 4", "experimental": "as §1"}, "[6]": {"test_system": "Staphylococcus aureus (ATCC 29213)", "assay": "MIC, broth microdilution", "conditions": "Staphylococcus aureus"}, "ACM1005 ATCC 19004": {"test_system": "ACM1005 ATCC 19004", "assay": "MIC, broth microdilution", "type": "cell-based, Acinetobacter baumannii", "conditions": "Table 4", "experimental": "as §1"}, "ACM1006 acc(6′)-Ib": {"test_system": "ACM1006 acc(6′)-Ib", "assay": "microbe, parasite or virus in culture", "type": "cell-based, Acinetobacter baumannii", "conditions": "Table 4", "experimental": "as §1"}}, "note": "Like-named read-outs stand apart in the source and are kept apart here.", "data": [{"smiles": "NC[C@@H]1CCC(N)[C@@H](OC2C(O)C(O[C@H]3OC(CO)C(O)[C@H](N)C3O)[C@H](NC(=O)C3(O)CNNC3)C[C@@H]2N)O1", "note": "(some centres unmarked) [Compound 28]", "values": [{"measurement": "fold increased resistance conferred by RmtB", "setting": "ECM6003 rmtB; strain expressing ribosomal RNA methylase RmtB", "value": 8, "unit": "fold"}]}, {"smiles": "CN[C@@H]1[C@@H](O)[C@@H](O[C@@H]2[C@@H](O)[C@H](O[C@H]3O[C@H](CNCCO)CC[C@H]3N)[C@@H](N)C[C@H]2NC(=O)[C@@H](O)CNN)OC[C@]1(C)O", "note": "[Compound 41, (S)—N-((1R,2S,3S,4R,5S)-5-amino-4-((2R,3R,6S)-3-amino-6-((2-hydroxyethylamino)methyl)tetrahydro-2H-pyran-2-yloxy)-2-((2R,3R,4R,5R)-3,5-dihydroxy-5-methyl-4-(methylamino)tetrahydro-2H-pyran-2-yloxy)-3-hydroxycyclohexyl)-3-hydrazinyl-2-hydroxypropanamide]", "values": [{"measurement": "MIC", "setting": "ECM6003 rmtB; Escherichia coli, Table 3, read-out: Compound MIC on Bacterial Strains: ECM6003 rmtB", "value": "> 8", "unit": "µg/mL"}, {"measurement": "MIC", "setting": "PAM3073 aac(6′)-I", "value": "> 8", "unit": "µg/mL"}, {"measurement": "MIC", "setting": "PAM3072 aac(6′)-II", "value": "> 8", "unit": "µg/mL"}, {"measurement": "MIC", "setting": "[1]", "value": "> 8", "unit": "µg/mL"}, {"measurement": "MIC", "setting": "[2]; ATCC27853, read-out: Compound MIC on Bacterial Strains: P. aeruginosa ATCC 27853", "value": "> 8", "unit": "µg/mL"}, {"measurement": "MIC", "setting": "[2]; ATCC27853, read-out: Compound MIC on Bacterial Strains: Pseudomonas aeruginosa PAM3034 ATCC 27853", "value": "> 8", "unit": "µg/mL"}, {"measurement": "MIC", "setting": "[3]; ATCC25922, read-out: Compound MIC on Bacterial Strains: E. coli ATCC 25922", "value": "1 to 8", "unit": "µg/mL"}, {"measurement": "MIC", "setting": "[3]; ATCC25922, read-out: Compound MIC on Bacterial Strains: ECM6000 ATCC 25922", "value": "1 to 8", "unit": "µg/mL"}, {"measurement": "MIC", "setting": "[3]; ATCC25922, read-out: Compound MIC on Bacterial Strains: Escherichia coli ECM6000 ATCC 25922", "value": "1 to 8", "unit": "µg/mL"}, {"measurement": "MIC", "setting": "ECM6011 aph(3′)-I; Escherichia coli, read-out: Compound MIC on Bacterial Strains: ECM6011 aph(3′)-I", "value": "1 to 8", "unit": "µg/mL"}, {"measurement": "MIC", "setting": "ECM6010 ant(2″)-I; Escherichia coli, read-out: Compound MIC on Bacterial Strains: ECM6010 ant(2″)-I", "value": "1 to 8", "unit": "µg/mL"}, {"measurement": "MIC", "setting": "ECM6009 aac(3)-II; Escherichia coli, read-out: Compound MIC on Bacterial Strains: ECM6009 aac(3)-II", "value": "> 8", "unit": "µg/mL"}, {"measurement": "MIC", "setting": "ECM6006 aph(3′)-III; Escherichia coli, read-out: Compound MIC on Bacterial Strains: ECM6006 aph(3′)-III", "value": "> 8", "unit": "µg/mL"}, {"measurement": "MIC", "setting": "[4]", "value": "1 to 8", "unit": "µg/mL"}, {"measurement": "MIC", "setting": "EC1002 aph(3′)-IV; read-out: Compound MIC on Bacterial Strains: EC1002 aph(3′)-IV", "value": "1 to 8", "unit": "µg/mL"}, {"measurement": "MIC", "setting": "EC1001 acc(6′)-Ib; Escherichia coli, read-out: Compound MIC on Bacterial Strains: Escherichia coli EC1001 acc(6′)-Ib", "value": "> 8", "unit": "µg/mL"}, {"measurement": "MIC", "setting": "[5]; Escherichia coli, 18 h, read-out: Compound MIC on Bacterial Strains: Escherichia coli ECM6007 aac(6′) + aph(2″)", "value": "1 to 8", "unit": "µg/mL"}, {"measurement": "MIC", "setting": "[6]; ATCC29213, read-out: Compound MIC on Bacterial Strains: S. aureus ATCC 29213, QC strain, Table 2", "value": "1 to 8", "unit": "µg/mL"}, {"measurement": "MIC", "setting": "[6]; ATCC29213, read-out: Compound MIC on Bacterial Strains: Staphylococcus aureus SAM1000 ATCC 29213, Table 5", "value": "1 to 8", "unit": "µg/mL"}]}, {"smiles": "CNC[C@@H]1CC[C@@H](N)[C@@H](O[C@H]2[C@H](O)[C@@H](O[C@H]3OC[C@](C)(O)[C@H](NC)[C@H]3O)[C@H](N)C[C@@H]2N)O1", "note": "[Micronomicin, reference compound]", "values": [{"measurement": "Compound MIC on Bacterial Strains: Acinetobacter baumannii ACM1005 ATCC 19004", "setting": "ACM1005 ATCC 19004", "value": "A (MIC of 1 μg/ml or less)"}, {"measurement": "Compound MIC on Bacterial Strains: ECM6003 rmtB", "setting": "ECM6003 rmtB; Table 3", "value": "C (MIC of greater than 8 μg/ml)"}, {"measurement": "Compound MIC on Bacterial Strains: ECM6000 ATCC 25922", "setting": "[3]; Table 3", "value": "A (MIC of 1 μg/ml or less)"}, {"measurement": "Compound MIC on Bacterial Strains: Escherichia coli ECM6000 ATCC 25922", "setting": "[3]; Table 4", "value": "A (MIC of 1 μg/ml or less)"}, {"measurement": "Compound MIC on Bacterial Strains: Acinetobacter baumannii ACM1006 acc(6′)-Ib", "setting": "ACM1006 acc(6′)-Ib", "value": "C (MIC of greater than 8 μg/ml)"}, {"measurement": "Compound MIC on Bacterial Strains: ECM6011 aph(3′)-I", "setting": "ECM6011 aph(3′)-I", "value": "B (key: A: MIC of 1 μg/ml or less; B: MIC of greater than 1 μg/ml to 8 μg/ml; MIC of greater than 8 μg/ml)"}, {"measurement": "Compound MIC on Bacterial Strains: ECM6010 ant(2″)-I", "setting": "ECM6010 ant(2″)-I", "value": "C (key: A: MIC of 1 μg/ml or less; B: MIC of greater than 1 μg/ml to 8 μg/ml; MIC of greater than 8 μg/ml)"}, {"measurement": "Compound MIC on Bacterial Strains: ECM6009 aac(3)-II", "setting": "ECM6009 aac(3)-II", "value": "C (key: A: MIC of 1 μg/ml or less; B: MIC of greater than 1 μg/ml to 8 μg/ml; MIC of greater than 8 μg/ml)"}, {"measurement": "Compound MIC on Bacterial Strains: ECM6006 aph(3′)-III", "setting": "ECM6006 aph(3′)-III", "value": "B (key: A: MIC of 1 μg/ml or less; B: MIC of greater than 1 μg/ml to 8 μg/ml; MIC of greater than 8 μg/ml)"}, {"measurement": "Compound MIC on Bacterial Strains: EC1002 aph(3′)-IV", "setting": "EC1002 aph(3′)-IV", "value": "A (key: A: MIC of 1 μg/ml or less; B: MIC of greater than 1 μg/ml to 8 μg/ml; MIC of greater than 8 μg/ml)"}, {"measurement": "Compound MIC on Bacterial Strains: Escherichia coli EC1001 acc(6′)-Ib", "setting": "EC1001 acc(6′)-Ib", "value": "C (MIC of greater than 8 μg/ml)"}, {"measurement": "Compound MIC on Bacterial Strains: Escherichia coli ECM6007 aac(6′) + aph(2″)", "setting": "[5]", "value": "B (MIC of greater than 1 μg/ml to 8 μg/ml)"}]}]}
